Experimental data published in US7122577B1, “Composition comprising a carrier and a purified mycobacterial lipid cell-wall component and its use in the treatment and diagnosis of disease” (priority 1997, dated 2006).

Test system: adjuvant arthritis
Details: rat, in vivo

Q: How did the Toxic effects turn out when mycolic acids [MA tb] was run?
A: Its Toxic effects is “No toxic effects”.

Q: And the “Toxic effects within the tested doses” value?
A: Its value is “No toxic effects”.
